{"source": "patent US8529964B1", "about": "“Method and composition for suppression and control of citrus canker and other plant diseases” (priority 2010, dated 2013)", "origin": "cited, not measured here", "data": [{"smiles": "O.O.O=C([O-])c1ccccc1.O=C([O-])c1ccccc1.[Cu+2]", "note": "[copper benzoate dehydrate]", "values": [{"measurement": "water solubility (in words)", "result": "slightly water soluble"}]}]}
